{
  "source": "patent US20260053811A1",
  "about": "“METHODS OF TREATING HYPERTENSION IN OBESE SUBJECTS” (Mineralys Therapeutics, Inc., priority 2022, published 2026)",
  "test_system": "hypertensive subjects",
  "assay": "24-hour ambulatory blood pressure monitoring (ABPM), incl. nighttime dip",
  "type": "in vivo, human",
  "conditions": "Part 1; for LSM Δ with Placebo, 24-hr DBP (ABPM, ANCOVA) / LSM Δ with Placebo, 24-hr Mean MAP (ABPM, ANCOVA) / LSM Δ with Placebo, 24-hr SBP (ABPM, ANCOVA) / LSM Δ with Placebo, Daytime Mean DBP (ABPM, ANCOVA) / LSM Δ with Placebo, Daytime Mean SBP (ABPM, ANCOVA) / LSM Δ with Placebo, Mean Central DBP (ABPM, ANCOVA) / LSM Δ with Placebo, Mean Central Mean BP (ABPM, ANCOVA) / LSM Δ with Placebo, Mean Central SBP (ABPM, ANCOVA) / LSM Δ with Placebo, Nighttime Mean DBP (ABPM, ANCOVA) / LSM Δ with Placebo, Nighttime Mean SBP (ABPM, ANCOVA): End of Treatment, FAS post-hoc",
  "protocol": "Ambulatory blood pressure monitoring was accomplished with an ambulatory blood pressure monitoring device that consists of a blood pressure cuff worn on a subject's arm attached to a small recording device that is typically attached to the subject's belt or waistband.\nThe ABPM device is worn for 24 hours. Throughout that period, the device records the subject's blood pressure at regular intervals, during the subject's routine daily activities and while they are sleeping. The ABPM thus provides a complete record of the subject's blood pressure over a 24-hour period.\n24-hour ABPM was measured in the clinic at baseline and Study Week 7. If, for any reason, the ABPM procedure was deemed a failure at the end of Study Week 7, it may have been repeated at Study Week 8 and therefore no imputation was employed regardless of use of rescue medications. Additionally, ABPM was also collected at the end of Study Week 4 in Part 2. If a repeat test was performed, it supersedes the original test results for that visit.\nSpecific derived variables based on ABPM measurements include mean 24-hour, mean Daytime, and mean Nighttime of SBP, DBP, and heart rate.\nChange from baseline to Week 7 in 24-hour mean SBP (and DBP) based on ABPM will be analyzed using an ANCOVA with a term for treatment group and a baseline mean 24-hour value as a covariate.\nThe nighttime dip is defined as\n100%×(mean daytime SBP−mean nighttime SBP)/mean daytime SBP\nIt is expressed as a percentage and is summarized by treatment group and visit using descriptive statistics. In addition, the number and percentage of subjects with nighttime dip in each of the dipper categories (Bloomfield & Park, 2015) is presented by treatment group and visit. The categories are: • (a) <10% • (b) 10-20% inclusive • (c) >20%\nSecondary endpoints of this study were: • (a) Change in 24-hour ambulatory blood pressure monitoring (ABPM) parameters (systolic and diastolic) from baseline to the end of Study Week 7. • (b) Change in office-measured SBP from baseline to the end of Study Weeks 1, 2, 3, 4, 5, 6, and 7. • (c) Change in office-measured diastolic blood pressure (DBP) from baseline to the end of Study Weeks 1, 2, 3, 4, 5, 6, 7, and 8. • (d) Proportion of subjects who achieve office-measured BP of ≤130/80 mm Hg by the end of Study Week 8.",
  "data": [
    {"compound": "CC(=O)N[C@H]1CC[C@H](NC(=O)CN2CCN(c3nncc(-c4ccc(C)cc4)n3)CC2)CC1", "note": "[Compound A HBr]", "values": [
      {"measurement": "LSM Δ with Placebo, 24-hr DBP (ABPM, ANCOVA)", "setting": "12.5 mg BID", "result": "−4.24", "unit": "mmHg"},
      {"measurement": "LSM Δ with Placebo, 24-hr Mean MAP (ABPM, ANCOVA)", "setting": "12.5 mg BID", "result": "−4.58", "unit": "mmHg"},
      {"measurement": "LSM Δ with Placebo, 24-hr SBP (ABPM, ANCOVA)", "setting": "12.5 mg BID", "result": "−4.76", "unit": "mmHg"},
      {"measurement": "LSM Δ with Placebo, Daytime Mean DBP (ABPM, ANCOVA)", "setting": "12.5 mg BID", "result": "−4.19", "unit": "mmHg"},
      {"measurement": "LSM Δ with Placebo, Daytime Mean SBP (ABPM, ANCOVA)", "setting": "12.5 mg BID", "result": "−4.96", "unit": "mmHg"},
      {"measurement": "LSM Δ with Placebo, Mean Central DBP (ABPM, ANCOVA)", "setting": "12.5 mg BID", "result": "−4.85", "unit": "mmHg"},
      {"measurement": "LSM Δ with Placebo, Mean Central Mean BP (ABPM, ANCOVA)", "setting": "12.5 mg BID", "result": "−6.08", "unit": "mmHg"},
      {"measurement": "LSM Δ with Placebo, Mean Central SBP (ABPM, ANCOVA)", "setting": "12.5 mg BID", "result": "−7.19", "unit": "mmHg"},
      {"measurement": "LSM Δ with Placebo, Nighttime Mean DBP (ABPM, ANCOVA)", "setting": "12.5 mg BID", "result": "−3.92", "unit": "mmHg"},
      {"measurement": "LSM Δ with Placebo, Nighttime Mean SBP (ABPM, ANCOVA)", "setting": "12.5 mg BID", "result": "−3.9", "unit": "mmHg"},
      {"measurement": "24-hr Mean DBP (ABPM), Mean (SD)", "setting": "12.5 mg BID, EoT, FAS", "result": "77.63 (11.03) mmHg"},
      {"measurement": "24-hr Mean MAP (ABPM), Mean (SD)", "setting": "12.5 mg BID, EoT, FAS", "result": "105.41 (12.62) mmHg"},
      {"measurement": "24-hr Mean SBP (ABPM), Mean (SD)", "setting": "12.5 mg BID, EoT, FAS", "result": "133.19 (14.86) mmHg"},
      {"measurement": "Daytime Mean DBP (ABPM), Mean (SD)", "setting": "12.5 mg BID, EoT, FAS", "result": "79.69 (10.81) mmHg"},
      {"measurement": "Daytime Mean SBP (ABPM), Mean (SD)", "setting": "12.5 mg BID, EoT, FAS", "result": "135.38 (14.97) mmHg"},
      {"measurement": "Nighttime Mean DBP (ABPM), Mean (SD)", "setting": "12.5 mg BID, EoT, FAS", "result": "72.44 (12.25) mmHg"},
      {"measurement": "Nighttime Mean SBP (ABPM), Mean (SD)", "setting": "12.5 mg BID, EoT, FAS", "result": "126.81 (16.69) mmHg"},
      {"measurement": "Subjects with nighttime dip 10-20% in 24-hour systolic ABPM", "setting": "12.5 mg BID, EoT, FAS", "result": "5 (31.3) n (%)"},
      {"measurement": "Subjects with nighttime dip <10% in 24-hour systolic ABPM", "setting": "12.5 mg BID, EoT, FAS", "result": "11 (68.8) n (%)"},
      {"measurement": "Subjects with nighttime dip >20% in 24-hour systolic ABPM", "setting": "12.5 mg BID, EoT, FAS", "result": "0 n (%)"},
      {"measurement": "24-hr Mean DBP (ABPM) CFB to EoT, Mean (SD)", "setting": "12.5 mg BID, FAS", "result": "−5.38 (8.59) mmHg"},
      {"measurement": "24-hr Mean MAP (ABPM) CFB to EoT, Mean (SD)", "setting": "12.5 mg BID, FAS", "result": "−5.53 (10.63) mmHg"},
      {"measurement": "24-hr Mean SBP (ABPM) CFB to EoT, Mean (SD)", "setting": "12.5 mg BID, FAS", "result": "−5.69 (12.90) mmHg"},
      {"measurement": "Daytime Mean DBP (ABPM) CFB to EoT, Mean (SD)", "setting": "12.5 mg BID, FAS", "result": "−4.25 (9.64) mmHg"},
      {"measurement": "Daytime Mean SBP (ABPM) CFB to EoT, Mean (SD)", "setting": "12.5 mg BID, FAS", "result": "−4.06 (14.48) mmHg"},
      {"measurement": "Nighttime Mean DBP (ABPM) CFB to EoT, Mean (SD)", "setting": "12.5 mg BID, FAS", "result": "−6.00 (10.17) mmHg"},
      {"measurement": "Nighttime Mean SBP (ABPM) CFB to EoT, Mean (SD)", "setting": "12.5 mg BID, FAS", "result": "−7.50 (16.17) mmHg"},
      {"measurement": "LSM Δ with Placebo, 24-hr DBP (ABPM, ANCOVA)", "setting": "12.5 mg QD", "result": "−1.44", "unit": "mmHg"},
      {"measurement": "LSM Δ with Placebo, 24-hr Mean MAP (ABPM, ANCOVA)", "setting": "12.5 mg QD", "result": "−1.62", "unit": "mmHg"},
      {"measurement": "LSM Δ with Placebo, 24-hr SBP (ABPM, ANCOVA)", "setting": "12.5 mg QD", "result": "−1.5", "unit": "mmHg"},
      {"measurement": "LSM Δ with Placebo, Daytime Mean DBP (ABPM, ANCOVA)", "setting": "12.5 mg QD", "result": "−2.47", "unit": "mmHg"},
      {"measurement": "LSM Δ with Placebo, Daytime Mean SBP (ABPM, ANCOVA)", "setting": "12.5 mg QD", "result": "−2.14", "unit": "mmHg"},
      {"measurement": "LSM Δ with Placebo, Mean Central DBP (ABPM, ANCOVA)", "setting": "12.5 mg QD", "result": "−1.29", "unit": "mmHg"},
      {"measurement": "LSM Δ with Placebo, Mean Central Mean BP (ABPM, ANCOVA)", "setting": "12.5 mg QD", "result": 0.06, "unit": "mmHg"},
      {"measurement": "LSM Δ with Placebo, Mean Central SBP (ABPM, ANCOVA)", "setting": "12.5 mg QD", "result": 1.92, "unit": "mmHg"},
      {"measurement": "LSM Δ with Placebo, Nighttime Mean DBP (ABPM, ANCOVA)", "setting": "12.5 mg QD", "result": "−1.53", "unit": "mmHg"},
      {"measurement": "LSM Δ with Placebo, Nighttime Mean SBP (ABPM, ANCOVA)", "setting": "12.5 mg QD", "result": "−0.21", "unit": "mmHg"},
      {"measurement": "24-hr Mean DBP (ABPM), Mean (SD)", "setting": "12.5 mg QD, EoT, FAS", "result": "79.93 (7.33) mmHg"},
      {"measurement": "24-hr Mean MAP (ABPM), Mean (SD)", "setting": "12.5 mg QD, EoT, FAS", "result": "109.47 (10.81) mmHg"},
      {"measurement": "24-hr Mean SBP (ABPM), Mean (SD)", "setting": "12.5 mg QD, EoT, FAS", "result": "139.00 (16.31) mmHg"},
      {"measurement": "Daytime Mean DBP (ABPM), Mean (SD)", "setting": "12.5 mg QD, EoT, FAS", "result": "81.53 (6.79) mmHg"}
    ]}
  ]
}
